In ChEMBL document CHEMBL5678818, “Discovery of potent SOS1 inhibitors that block RAS activation via disruption of the RAS-SOS1 interaction” (Proc Natl Acad Sci U S A, 2019):

What was measured:
[1] = biological target: 1-phosphatidylinositol 3-phosphate 5-kinase (Homo sapiens) (UniProt Q9Y2I7); assay: Inhibition of PIKFYVE (unknown origin) assessed as residual activity at 1000 nM by KINOMEscan analysis relative to control
[2] = biological target: Tyrosine-protein kinase CSK (Homo sapiens) (UniProt P41240); assay: Inhibition of CSK (unknown origin) assessed as residual activity at 100 nM by KINOMEscan analysis relative to control
Homo sapiens = species: Homo sapiens; assay: Inhibition of PIP5K1C (unknown origin) assessed as residual activity at 100 nM by KINOMEscan analysis relative to control
[3] = biological target: Vascular endothelial growth factor receptor 2 (Homo sapiens) (UniProt P35968); assay: Inhibition of VEGFR2 (unknown origin) assessed as residual activity at 100 nM by KINOMEscan analysis relative to control
[4] = biological target: Vascular endothelial growth factor receptor 3 (Homo sapiens) (UniProt P35916); assay: Inhibition of FLT4 (unknown origin) assessed as residual activity at 100 nM by KINOMEscan analysis relative to control
[5] = biological target: T1, Mitogen-activated protein kinase kinase kinase 15 (Homo sapiens) (UniProt Q6ZN16); assay: Inhibition of MAP3K15 (unknown origin) assessed as residual activity at 100 nM by KINOMEscan analysis relative to control
T1 sequence (whole entry): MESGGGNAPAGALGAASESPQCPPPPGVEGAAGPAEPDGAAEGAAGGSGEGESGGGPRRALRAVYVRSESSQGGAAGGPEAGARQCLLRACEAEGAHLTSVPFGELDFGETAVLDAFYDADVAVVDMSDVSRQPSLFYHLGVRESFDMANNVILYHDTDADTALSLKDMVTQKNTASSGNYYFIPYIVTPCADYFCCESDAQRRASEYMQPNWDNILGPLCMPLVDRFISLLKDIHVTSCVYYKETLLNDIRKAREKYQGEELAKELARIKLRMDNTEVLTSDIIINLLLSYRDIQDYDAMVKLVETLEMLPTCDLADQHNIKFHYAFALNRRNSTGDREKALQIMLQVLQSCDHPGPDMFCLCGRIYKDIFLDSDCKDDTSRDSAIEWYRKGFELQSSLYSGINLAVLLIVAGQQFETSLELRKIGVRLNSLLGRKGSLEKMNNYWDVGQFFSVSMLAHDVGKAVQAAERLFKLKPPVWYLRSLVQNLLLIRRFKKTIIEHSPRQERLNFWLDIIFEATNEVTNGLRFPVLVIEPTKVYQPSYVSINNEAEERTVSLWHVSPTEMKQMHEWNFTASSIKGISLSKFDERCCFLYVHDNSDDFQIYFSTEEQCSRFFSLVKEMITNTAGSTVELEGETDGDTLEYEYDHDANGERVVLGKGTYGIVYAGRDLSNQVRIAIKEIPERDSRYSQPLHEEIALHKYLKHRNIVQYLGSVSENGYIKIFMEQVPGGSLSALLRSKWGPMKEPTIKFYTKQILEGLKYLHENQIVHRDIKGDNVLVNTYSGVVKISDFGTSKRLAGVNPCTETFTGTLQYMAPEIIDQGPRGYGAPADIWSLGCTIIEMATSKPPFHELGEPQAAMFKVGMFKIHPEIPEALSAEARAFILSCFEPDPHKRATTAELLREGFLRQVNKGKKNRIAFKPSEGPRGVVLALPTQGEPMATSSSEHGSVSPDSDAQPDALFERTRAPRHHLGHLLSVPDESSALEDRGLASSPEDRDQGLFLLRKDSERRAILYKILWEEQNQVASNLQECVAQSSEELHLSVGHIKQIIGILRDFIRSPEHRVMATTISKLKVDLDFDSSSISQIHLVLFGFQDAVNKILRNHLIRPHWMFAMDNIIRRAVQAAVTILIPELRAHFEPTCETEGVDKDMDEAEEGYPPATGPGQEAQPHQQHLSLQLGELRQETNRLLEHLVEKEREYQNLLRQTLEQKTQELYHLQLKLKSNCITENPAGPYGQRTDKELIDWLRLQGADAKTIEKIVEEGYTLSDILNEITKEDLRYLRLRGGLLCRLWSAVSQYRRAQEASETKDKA

[6] = tested on: Hepatocyte growth factor receptor (Homo sapiens), P08581 [Y1235D]; assay: Inhibition of MET Y1235D mutant (unknown origin) assessed as residual activity at 100 nM by KINOMEscan analysis relative to control
[7] = biological target: Cyclin-dependent kinase 15 (Homo sapiens) (UniProt Q96Q40); assay: Inhibition of PFTAIRE2 (unknown origin) assessed as residual activity at 100 nM by KINOMEscan analysis relative to control
[8] = biological target: Mitogen-activated protein kinase kinase kinase 11 (Homo sapiens) (UniProt Q16584); assay: Inhibition of MLK3 (unknown origin) assessed as residual activity at 100 nM by KINOMEscan analysis relative to control
[9] = biological target: Homeodomain-interacting protein kinase 3 (Homo sapiens) (UniProt Q9H422); assay: Inhibition of HIPK3 (unknown origin) assessed as residual activity at 100 nM by KINOMEscan analysis relative to control
Chain of Homeodomain-interacting protein kinase 3 (Homo sapiens) (Q9H422 whole entry, looked up): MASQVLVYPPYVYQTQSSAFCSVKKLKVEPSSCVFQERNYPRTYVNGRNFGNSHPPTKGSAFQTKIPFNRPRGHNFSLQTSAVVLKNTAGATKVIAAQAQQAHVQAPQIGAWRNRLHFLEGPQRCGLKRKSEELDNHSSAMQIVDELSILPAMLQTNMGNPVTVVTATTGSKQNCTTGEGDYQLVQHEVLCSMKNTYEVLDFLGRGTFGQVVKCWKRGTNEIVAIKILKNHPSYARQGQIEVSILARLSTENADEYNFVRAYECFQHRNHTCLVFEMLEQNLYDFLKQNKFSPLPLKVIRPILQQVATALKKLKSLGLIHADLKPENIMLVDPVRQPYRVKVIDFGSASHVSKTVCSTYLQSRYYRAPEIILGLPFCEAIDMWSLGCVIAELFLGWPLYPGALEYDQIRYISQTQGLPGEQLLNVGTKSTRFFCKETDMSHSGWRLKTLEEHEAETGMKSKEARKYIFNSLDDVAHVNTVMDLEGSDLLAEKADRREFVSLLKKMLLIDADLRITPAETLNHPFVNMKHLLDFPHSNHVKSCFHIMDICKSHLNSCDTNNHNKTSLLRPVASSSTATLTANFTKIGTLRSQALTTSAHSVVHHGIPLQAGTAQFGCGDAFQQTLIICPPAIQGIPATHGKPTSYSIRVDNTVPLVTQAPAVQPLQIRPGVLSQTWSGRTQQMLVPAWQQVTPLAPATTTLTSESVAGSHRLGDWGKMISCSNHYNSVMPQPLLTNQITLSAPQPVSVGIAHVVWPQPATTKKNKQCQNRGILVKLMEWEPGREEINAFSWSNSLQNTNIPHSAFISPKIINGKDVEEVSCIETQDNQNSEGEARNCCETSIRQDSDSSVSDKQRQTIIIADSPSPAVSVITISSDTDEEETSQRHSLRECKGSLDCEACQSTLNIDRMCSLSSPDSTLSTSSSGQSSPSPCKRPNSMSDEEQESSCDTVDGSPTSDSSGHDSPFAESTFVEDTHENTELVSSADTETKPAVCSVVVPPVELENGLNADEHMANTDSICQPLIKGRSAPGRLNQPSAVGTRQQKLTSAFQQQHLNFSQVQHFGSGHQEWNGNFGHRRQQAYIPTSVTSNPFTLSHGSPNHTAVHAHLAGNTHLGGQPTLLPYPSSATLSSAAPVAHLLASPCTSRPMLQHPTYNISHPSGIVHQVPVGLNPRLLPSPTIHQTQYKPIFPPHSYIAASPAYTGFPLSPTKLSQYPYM

Chain of Vascular endothelial growth factor receptor 3 (Homo sapiens) (P35916 whole entry): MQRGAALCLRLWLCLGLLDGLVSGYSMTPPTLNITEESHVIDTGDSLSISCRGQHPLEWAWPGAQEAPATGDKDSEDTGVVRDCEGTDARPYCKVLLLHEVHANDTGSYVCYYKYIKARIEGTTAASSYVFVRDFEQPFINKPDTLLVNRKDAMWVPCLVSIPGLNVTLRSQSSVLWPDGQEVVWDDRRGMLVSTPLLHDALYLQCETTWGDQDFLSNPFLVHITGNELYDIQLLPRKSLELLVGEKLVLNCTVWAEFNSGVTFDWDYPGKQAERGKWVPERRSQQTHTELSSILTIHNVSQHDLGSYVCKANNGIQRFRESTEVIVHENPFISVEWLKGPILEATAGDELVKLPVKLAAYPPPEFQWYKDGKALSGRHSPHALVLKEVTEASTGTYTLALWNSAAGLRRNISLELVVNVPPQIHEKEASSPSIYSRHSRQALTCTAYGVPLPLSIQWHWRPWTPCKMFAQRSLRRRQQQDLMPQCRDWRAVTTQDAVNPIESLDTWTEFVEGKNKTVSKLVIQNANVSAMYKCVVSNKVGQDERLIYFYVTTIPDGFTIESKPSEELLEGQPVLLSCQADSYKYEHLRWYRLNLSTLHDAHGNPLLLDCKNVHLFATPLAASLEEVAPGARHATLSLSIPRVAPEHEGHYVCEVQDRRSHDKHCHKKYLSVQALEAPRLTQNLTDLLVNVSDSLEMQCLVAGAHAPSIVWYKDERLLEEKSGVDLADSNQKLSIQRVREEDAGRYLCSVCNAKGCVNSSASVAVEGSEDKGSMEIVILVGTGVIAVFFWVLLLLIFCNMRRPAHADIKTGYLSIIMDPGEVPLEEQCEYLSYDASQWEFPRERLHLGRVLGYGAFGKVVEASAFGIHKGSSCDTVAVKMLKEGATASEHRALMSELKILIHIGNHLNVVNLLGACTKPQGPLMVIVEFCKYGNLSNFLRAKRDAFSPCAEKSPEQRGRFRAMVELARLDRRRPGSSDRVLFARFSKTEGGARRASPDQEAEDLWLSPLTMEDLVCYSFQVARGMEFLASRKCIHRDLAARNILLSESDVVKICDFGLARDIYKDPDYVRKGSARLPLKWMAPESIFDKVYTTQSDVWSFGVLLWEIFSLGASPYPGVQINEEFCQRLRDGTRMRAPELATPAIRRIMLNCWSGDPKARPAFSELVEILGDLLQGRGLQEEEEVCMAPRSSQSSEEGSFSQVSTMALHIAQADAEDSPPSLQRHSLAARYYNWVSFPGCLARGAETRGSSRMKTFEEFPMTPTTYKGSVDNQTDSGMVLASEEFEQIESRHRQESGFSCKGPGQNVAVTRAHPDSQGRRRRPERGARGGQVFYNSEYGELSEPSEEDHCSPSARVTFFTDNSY
Chain of Mitogen-activated protein kinase kinase kinase 11 (Homo sapiens) (Q16584 whole entry, looked up): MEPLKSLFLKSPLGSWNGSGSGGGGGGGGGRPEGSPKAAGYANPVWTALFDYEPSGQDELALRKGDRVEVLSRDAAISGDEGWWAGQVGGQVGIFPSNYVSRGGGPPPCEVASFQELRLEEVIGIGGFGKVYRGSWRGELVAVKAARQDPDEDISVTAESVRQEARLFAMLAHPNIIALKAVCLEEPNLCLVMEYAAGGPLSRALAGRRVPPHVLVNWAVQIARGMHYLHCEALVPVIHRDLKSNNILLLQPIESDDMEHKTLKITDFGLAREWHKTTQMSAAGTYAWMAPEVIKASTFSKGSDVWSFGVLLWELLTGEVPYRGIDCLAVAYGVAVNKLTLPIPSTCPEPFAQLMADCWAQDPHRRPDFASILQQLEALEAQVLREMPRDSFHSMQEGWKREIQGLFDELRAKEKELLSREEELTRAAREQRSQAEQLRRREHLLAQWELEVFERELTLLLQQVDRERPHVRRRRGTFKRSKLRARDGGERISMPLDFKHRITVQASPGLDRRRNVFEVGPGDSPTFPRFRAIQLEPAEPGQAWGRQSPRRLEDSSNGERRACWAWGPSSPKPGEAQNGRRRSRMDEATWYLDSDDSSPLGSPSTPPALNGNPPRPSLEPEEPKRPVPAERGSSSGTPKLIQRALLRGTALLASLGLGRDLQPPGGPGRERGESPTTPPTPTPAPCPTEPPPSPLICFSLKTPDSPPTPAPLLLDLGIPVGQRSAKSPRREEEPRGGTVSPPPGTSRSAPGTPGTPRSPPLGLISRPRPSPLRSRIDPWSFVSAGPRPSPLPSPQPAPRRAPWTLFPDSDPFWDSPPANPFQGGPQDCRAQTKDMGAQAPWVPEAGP
Chain of Tyrosine-protein kinase CSK (Homo sapiens) (P41240 2-450 limits assumed): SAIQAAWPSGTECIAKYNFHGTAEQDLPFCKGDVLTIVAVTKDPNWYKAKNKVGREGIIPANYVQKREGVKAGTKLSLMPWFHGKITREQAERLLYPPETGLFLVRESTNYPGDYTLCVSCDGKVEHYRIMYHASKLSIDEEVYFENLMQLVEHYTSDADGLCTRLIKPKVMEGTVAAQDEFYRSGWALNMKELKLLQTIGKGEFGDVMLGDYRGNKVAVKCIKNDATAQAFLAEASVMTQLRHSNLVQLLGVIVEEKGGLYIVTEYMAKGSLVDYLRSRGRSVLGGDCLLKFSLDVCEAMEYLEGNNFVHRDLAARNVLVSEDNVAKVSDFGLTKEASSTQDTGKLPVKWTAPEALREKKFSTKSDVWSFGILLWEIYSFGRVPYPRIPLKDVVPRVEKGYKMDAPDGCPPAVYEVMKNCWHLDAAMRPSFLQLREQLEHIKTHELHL
Chain of Cyclin-dependent kinase 15 (Homo sapiens) (Q96Q40 whole entry): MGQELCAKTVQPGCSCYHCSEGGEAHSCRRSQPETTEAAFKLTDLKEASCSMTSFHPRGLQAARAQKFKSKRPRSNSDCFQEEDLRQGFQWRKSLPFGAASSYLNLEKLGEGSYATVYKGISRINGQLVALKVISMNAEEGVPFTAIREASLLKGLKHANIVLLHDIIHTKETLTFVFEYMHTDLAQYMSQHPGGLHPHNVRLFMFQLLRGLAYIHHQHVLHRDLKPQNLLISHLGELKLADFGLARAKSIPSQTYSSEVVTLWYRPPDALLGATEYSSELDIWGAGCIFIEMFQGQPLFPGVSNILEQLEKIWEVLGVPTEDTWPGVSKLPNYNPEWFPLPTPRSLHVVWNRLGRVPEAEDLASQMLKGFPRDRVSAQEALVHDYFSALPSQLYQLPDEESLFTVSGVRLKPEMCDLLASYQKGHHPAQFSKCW

| SMILES | Activity [1] [%] | Activity [2] [%] | Activity (Homo sapiens) [%] | Activity [3] [%] | Activity [4] [%] | Activity [5] [%] | Activity [6] [%] | Activity [7] [%] | Activity [8] [%] | Activity [9] [%] |
| --- | --- | --- | --- | --- | --- | --- | --- | --- | --- | --- |
| COc1cc2nc(C)nc(N[C@H](C)c3cccc(-c4cn[nH]c4)c3)c2cc1OC | 68 |  |  |  |  |  |  |  |  |  |
| COc1cc2ncnc(N[C@H](C)c3cccc4ccccc34)c2cc1OC |  | 90 | 63 | 75 | 92 | 86 | 83 | 100 | 100 | 88 |
